Assay results as given in PubChem BioAssay AID2060488 (Molecular Pharmacology Branch, DTP, NCI, 2025).

System: 966289-007-R4-J1-PDC complex spheroid viability
Test: Anticancer human tumor 966289-007-R4-J1-PDC patient-derived pancreatic adenocarcinoma cell line growth inhibition [GQUAD]
Conditions: for IC50: curve of first compound; for viability, T/C: stronger effect = lower value; active means viability on the fitted dose curve at most 10% of control; inactive means the rest
How it was run: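 Viability of tumor cells grown as complex spheroids with endothelial and stromal cells, exposed to drug combinations. Top concentration at or near clinical Cmax (else 10 microM), diluted in half-log increments.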

[1] = second compound 0.0316 µM, first compound 0.0316 µM
[2] = second compound 0.0316 µM, first compound 0.1 µM
[3] = second compound 0.0316 µM, first compound 0.316 µM
[4] = second compound 0.0316 µM, first compound 1 µM
[5] = second compound 0.0316 µM, first compound 3.16 µM
[6] = second compound 0.0316 µM, first compound 10 µM
[7] = second compound 0.1 µM, first compound 0.0316 µM
[8] = second compound 0.1 µM, first compound 0.1 µM
[9] = second compound 0.1 µM, first compound 0.316 µM
[10] = second compound 0.1 µM, first compound 1 µM
[11] = second compound 0.1 µM, first compound 3.16 µM
[12] = second compound 0.1 µM, first compound 10 µM
[13] = second compound 0.316 µM, first compound 0.0316 µM
[14] = second compound 0.316 µM, first compound 0.1 µM
[15] = second compound 0.316 µM, first compound 0.316 µM
[16] = second compound 0.316 µM, first compound 1 µM
[17] = second compound 0.316 µM, first compound 3.16 µM
[18] = second compound 0.316 µM, first compound 10 µM
[19] = second compound 1 µM, first compound 0.0316 µM
[20] = second compound 1 µM, first compound 0.1 µM
[21] = second compound 1 µM, first compound 0.316 µM
[22] = second compound 1 µM, first compound 1 µM
[23] = second compound 1 µM, first compound 3.16 µM
[24] = second compound 1 µM, first compound 10 µM
[25] = second compound 3.16 µM, first compound 0.0316 µM
[26] = second compound 3.16 µM, first compound 0.1 µM
[27] = second compound 3.16 µM, first compound 0.316 µM
[28] = second compound 3.16 µM, first compound 1 µM
[29] = second compound 3.16 µM, first compound 3.16 µM
[30] = second compound 3.16 µM, first compound 10 µM
[31] = second compound 10 µM, first compound 0.0316 µM
[32] = second compound 10 µM, first compound 0.1 µM
[33] = second compound 10 µM, first compound 0.316 µM
[34] = second compound 10 µM, first compound 1 µM
[35] = second compound 10 µM, first compound 3.16 µM
[36] = second compound 10 µM, first compound 10 µM
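Further: spheroids exposed to the agents for seven days before readout.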
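Wherever viability, T/C is given: percent viability relative to DMSO vehicle control wells taken as 100%.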

CCCS(=O)(=O)Nc1ccc(F)c(C(=O)c2c[nH]c3ncc(-c4ccc(Cl)cc4)cc23)c1F + CN(C)c1ccc(Nc2c3ccc(NC(=O)CCN4CCCC4)cc3nc3cc(NC(=O)CCN4CCCC4)ccc23)cc1
7.34 µM: IC50 (second compound 0.0316 µM) | IC50 (second compound 0.1 µM)
2.03 µM: IC50 (second compound 10 µM)
7.41 µM: IC50 (second compound 0.316 µM)
active: viability, T/C [30] 7.98% | viability, T/C [36] 0.53%
inactive: viability, T/C [1] 99.4% | viability, T/C [2] 97.3% | viability, T/C [3] 109% | viability, T/C [4] 103% | viability, T/C [5] 104% | viability, T/C [6] 30.5% | viability, T/C [7] 100% | viability, T/C [8] 101% | viability, T/C [9] 99.3% | viability, T/C [10] 102% | viability, T/C [11] 107% | viability, T/C [12] 30.8% | viability, T/C [13] 100% | viability, T/C [14] 105% | viability, T/C [15] 103% | viability, T/C [16] 106% | viability, T/C [17] 102% | viability, T/C [18] 31.8% | viability, T/C [19] 92.2% | viability, T/C [20] 104% | viability, T/C [21] 109% | viability, T/C [22] 108% | viability, T/C [23] 103% | viability, T/C [24] 24.4% | viability, T/C [25] 99.8% | viability, T/C [26] 99.9% | viability, T/C [27] 110% | viability, T/C [28] 104% | viability, T/C [29] 93.4% | viability, T/C [31] 103% | viability, T/C [32] 102% | viability, T/C [33] 106% | viability, T/C [34] 103% | viability, T/C [35] 17.2%
5.67 µM: IC50 (second compound 3.16 µM)
6.87 µM: IC50 (second compound 1 µM)

COc1ncnc(C2CC2)c1-c1ncc2cnn(Cc3ccc(-c4nc(C(F)(F)F)cn4C(C)C)cc3)c2n1 + CN(C)c1ccc(Nc2c3ccc(NC(=O)CCN4CCCC4)cc3nc3cc(NC(=O)CCN4CCCC4)ccc23)cc1
inactive: viability, T/C [1] 103% | viability, T/C [2] 97% | viability, T/C [3] 108% | viability, T/C [4] 98.1% | viability, T/C [5] 100% | viability, T/C [6] 109% | viability, T/C [7] 103% | viability, T/C [8] 100% | viability, T/C [9] 105% | viability, T/C [10] 105% | viability, T/C [11] 92.7% | viability, T/C [12] 107% | viability, T/C [13] 103% | viability, T/C [14] 102% | viability, T/C [15] 105% | viability, T/C [16] 100% | viability, T/C [17] 92% | viability, T/C [18] 106% | viability, T/C [19] 93.9% | viability, T/C [20] 99.5% | viability, T/C [21] 104% | viability, T/C [22] 92.7% | viability, T/C [23] 98.3% | viability, T/C [24] 101% | viability, T/C [25] 102% | viability, T/C [26] 98.2% | viability, T/C [27] 106% | viability, T/C [28] 100% | viability, T/C [29] 106% | viability, T/C [30] 110% | viability, T/C [31] 102% | viability, T/C [32] 103% | viability, T/C [33] 109% | viability, T/C [34] 107% | viability, T/C [35] 91.7%
5.62 µM: IC50 (second compound 10 µM)
active: viability, T/C [36] 8.22%
> 10 µM: IC50 (second compound 0.0316 µM) | IC50 (second compound 0.1 µM) | IC50 (second compound 0.316 µM) | IC50 (second compound 1 µM) | IC50 (second compound 3.16 µM)

Cc1[nH]c2ccccc2c1CCNCc1ccc(/C=C/C(=O)NO)cc1 + CN(C)c1ccc(Nc2c3ccc(NC(=O)CCN4CCCC4)cc3nc3cc(NC(=O)CCN4CCCC4)ccc23)cc1
0.0684 µM: IC50 (second compound 0.1 µM)
0.0543 µM: IC50 (second compound 3.16 µM)
0.0469 µM: IC50 (second compound 10 µM)
inactive: viability, T/C (second compound 0.0316 µM, first compound 0.000999 µM) 106% | viability, T/C (second compound 0.0316 µM, first compound 0.00316 µM) 95.3% | viability, T/C (second compound 0.0316 µM, first compound 0.00999 µM) 109% | viability, T/C [1] 85.8% | viability, T/C (second compound 0.0316 µM, first compound 0.0999 µM) 40.2% | viability, T/C (second compound 0.1 µM, first compound 0.000999 µM) 106% | viability, T/C (second compound 0.1 µM, first compound 0.00316 µM) 102% | viability, T/C (second compound 0.1 µM, first compound 0.00999 µM) 109% | viability, T/C [7] 87.8% | viability, T/C (second compound 0.1 µM, first compound 0.0999 µM) 31.4% | viability, T/C (second compound 0.316 µM, first compound 0.000999 µM) 94.7% | viability, T/C (second compound 0.316 µM, first compound 0.00316 µM) 97.8% | viability, T/C (second compound 0.316 µM, first compound 0.00999 µM) 109% | viability, T/C [13] 101% | viability, T/C (second compound 0.316 µM, first compound 0.0999 µM) 33.1% | viability, T/C (second compound 1 µM, first compound 0.000999 µM) 98.9% | viability, T/C (second compound 1 µM, first compound 0.00316 µM) 100% | viability, T/C (second compound 1 µM, first compound 0.00999 µM) 108% | viability, T/C [19] 98.2% | viability, T/C (second compound 1 µM, first compound 0.0999 µM) 25% | viability, T/C (second compound 3.16 µM, first compound 0.000999 µM) 98.3% | viability, T/C (second compound 3.16 µM, first compound 0.00316 µM) 104% | viability, T/C (second compound 3.16 µM, first compound 0.00999 µM) 104% | viability, T/C [25] 81% | viability, T/C (second compound 3.16 µM, first compound 0.0999 µM) 14.8% | viability, T/C (second compound 10 µM, first compound 0.000999 µM) 100% | viability, T/C (second compound 10 µM, first compound 0.00316 µM) 104% | viability, T/C (second compound 10 µM, first compound 0.00999 µM) 108% | viability, T/C [31] 74.8%
0.0675 µM: IC50 (second compound 1 µM)
0.075 µM: IC50 (second compound 0.316 µM)
0.078 µM: IC50 (second compound 0.0316 µM)
active: viability, T/C [3] 5.05% | viability, T/C [9] 4.54% | viability, T/C [15] 3.99% | viability, T/C [21] 3.89% | viability, T/C [27] 1.84% | viability, T/C (second compound 10 µM, first compound 0.0999 µM) 2.99% | viability, T/C [33] 0.49%
